Article PMC11044151, “Development of Half-Sandwich Ru, Os, Rh, and Ir Complexes Bearing the Pyridine-2-ylmethanimine Bidentate Ligand Derived from 7-Chloroquinazolin-4(3H)-one with Enhanced Antiproliferative Activity” (ACS Omega, 2024)

Legend:
SW620 cells = experiment: Cell cycle distribution by flow cytometry, SW620; format: cell-based, human; settings: concentration equal to IC75 of (S)-1 / (R)-1, mean ± SEM, n = 3; for Cell cycle fraction G1, 24 h / Cell cycle fraction G2/M, 24 h / Cell cycle fraction S, 24 h: SW620, 24 h; for Cell cycle fraction G1, 48 h / Cell cycle fraction G2/M, 48 h / Cell cycle fraction S, 48 h: SW620, 48 h
Description: Ispinesib leads to the formation of monopolar mitotic spindles and a blockade of chromosome segregation in cancer cells. Using flow cytometry, we assessed the cell cycle distribution in the SW620 and SW620E cells exposed to the studied compounds for 24 and 48 h. […] Both complexes, 3c and 3d, decrease the percentage of cells in the G1/G0 phase and increase the percentage in the S and G2/M phases. […] Furthermore, prolonged exposure to the compounds increases the percentage of cells in the G2/M phase, with the most intensive effect observed for 3c and 3d.
SW620 and SW620E cells lines (vulnerable and resistant variants, respectively) were seeded in 6-well plates at a density of 10^5 cells per well. […] After 24 h, the cells were trypsinized and fixed with ice-cold 70% v/v ethanol. The cells were stained with 75 μM propidium iodide with 50 Kunitz units of RNase A in PBS for 30 min at 37 °C. All samples were analyzed using a LSRII flow cytometer (Becton Dickinson) at a PE channel ([…]). Cell cycle phase distribution was determined using a built-in cell cycle module (Watson pragmatic algorithm) by FlowJo 7.6.1 software.

SW620Mito = experiment: Neutral red uptake antiproliferative assay, MDR line SW620Mito; format: cell-based, human; settings: for IC50: exposure time 72 h, n = 3, ABCG2-overexpressing MDR line; for activity factor IC50(1)/IC50(3a–4d), SW620Mito: vs corresponding amine (R)-1 or (S)-1, 72 h
Text: (§1) Next, we evaluated the cytotoxicity of the synthesized complexes toward the panel of six multidrug-resistant (MDR) cell lines derived from SW620 and characterized by the overexpression of various ABC proteins, namely, ABCG2 (SW620C and SW620Mito), ABCC1 (SW620M and SW620E), and ABCB1 (SW620D, SW620E, and SW620V) (Table 3, Figures S29 and S32). […] The activity of the complexes derived from the ligand (S)-2 is also considerably higher than that of the compounds containing the ligand (R)-2. The cytotoxicity of both rhodium 4c and iridium 4d complexes is higher than that of amine (S)-1. In the case of 4c, the increase in cytotoxicity is low, with the highest value of 3.7-fold for the SW620Mito line. […] Compound 4d also exerts a 2.1- and 2.6-fold higher cytotoxicity than […] against the SW620C and SW620D lines.
(§2) For this purpose, neutral red uptake assay was performed. […] The results were presented as a percentage of control.

KSP = target: T1, KSP (Homo sapiens, UniProt P52732); experiment: Kinesin ATPase inhibition (ATP hydrolysis) end-point assay; format: biochemical; settings: for KSP residual activity: 100 nM stated for ispinesib and (R)-1, concentration not restated for the complexes
T1 construct: purchased Cytoskeleton, Inc
T1 sequence (P52732 1-368 limits assumed): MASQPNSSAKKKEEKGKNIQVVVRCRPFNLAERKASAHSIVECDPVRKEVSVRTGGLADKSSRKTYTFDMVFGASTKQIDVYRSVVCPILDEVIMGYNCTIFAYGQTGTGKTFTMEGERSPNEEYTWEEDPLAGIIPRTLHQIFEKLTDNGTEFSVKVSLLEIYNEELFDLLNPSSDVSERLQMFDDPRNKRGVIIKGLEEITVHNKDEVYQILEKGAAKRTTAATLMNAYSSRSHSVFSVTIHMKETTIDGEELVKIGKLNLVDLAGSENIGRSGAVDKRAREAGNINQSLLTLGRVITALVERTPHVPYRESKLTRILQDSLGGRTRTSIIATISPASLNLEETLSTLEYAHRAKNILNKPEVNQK
Description: The mechanism of the anticancer activity of ispinesib is related to the inhibition of the activity of the KSP. Thus, we studied the synthesized compounds’ ability to inhibit KSP activity using the adenosine 5′-triphosphate (ATP) hydrolysis assay.
The potential kinesin modulatory activity of tested compounds was performed using a Kinesin ATPase end-point biochem kit (Cytoskeleton, Inc.). […] The experiment was performed according to the manufacturer’s instructions. One μg of tested kinesin (KSP) was used per reaction. Phosphate release was measured at the absorbance 650 nm using an EnVision multilabel plate reader (PerkinElmer).

Colo205 = experiment: cells; settings: for IC50: read-out: IC50 Colo205, exposure time 72 h, n = 3, 95% CI given; for activity factor IC50(1)/IC50(3a–4d), Colo205: vs corresponding amine (R)-1 or (S)-1, 72 h
Text: (§3) To assess the impact of conjugating half-sandwich complexes with amines 1 via an imine-pyridine ligand on biological activity, we examined the antiproliferative potential of (R)- and (S)-1 and organometallic conjugates 3a–d and 4a–d in selected human cancer cell lines: alveolar basal epithelial cell adenocarcinoma (A549), colorectal adenocarcinomas (Colo205 and SW620), colorectal carcinoma (HCT116), hepatocellular carcinoma (HepG2), and breast adenocarcinoma (MCF7). The choice of cell lines was dictated by results of previously published clinical trials on ispinesib.[49],[50]
(§4) Cell lines used in this study were purchased from the American Type Culture Collection via LGC Standards. Human normal lung fibroblasts (MRC-5), alveolar basal epithelial cell adenocarcinoma (A549), colorectal adenocarcinoma (Colo205), hepatocellular carcinoma (HepG2), breast adenocarcinoma (MCF7), and colorectal adenocarcinoma (SW620) and its MDR variants[55] were cultured in standard conditions (37 °C, 5% CO2, 100% relative humidity) in high glucose DMEM medium supplemented with GlutaMax, HEPES (ThermoFisher Scientific) and 10% fetal bovine serum (EURx, Poland). All cell lines were tested for Mycoplasma contamination using a MycoProbe mycoplasma detection kit (R&D System).
(§5) For this purpose, neutral red uptake assay was performed. 10^4 of cells were seeded per well of a 96-well plate and left overnight to allow cells to attach to the surface. Then, the cells were exposed to a desired concentration of tested compounds. Stock solutions were prepared in DMSO and were used immediately after preparation. The final concentration of DMSO was constant and nontoxic (0.1% v/v). After 70 h of culture, neutral red was added to the final concentration of 1 mM. After 2 h of incubation with the dye, the medium was aspirated and cells were washed with ice-cold PBS. The dye was released using 100 μL of the solubilizer (1% acetic acid in 50% ethanol) on an orbital shaker (10 min). The absorbance at 540 nm was measured using an EnVision multilabel plate reader (PerkinElmer). […] The IC90 and IC50 parameters were calculated using GraphPad Prism v9 software using the five-parameter nonlinear logistic regression model.

MCF7 = experiment: cells; settings: for IC50: read-out: IC50 MCF7, exposure time 72 h, n = 3, 95% CI given; for activity factor IC50(1)/IC50(3a–4d), MCF7: vs corresponding amine (R)-1 or (S)-1, 72 h
Text: as §3, §4, §5

HepG2 = experiment: cells; settings: for IC50: read-out: IC50 HepG2, exposure time 72 h, n = 3, 95% CI given; for activity factor IC50(1)/IC50(3a–4d), HepG2: vs corresponding amine (R)-1 or (S)-1, 72 h
Text: as §3, §4, §5

SW620C = experiment: Neutral red uptake antiproliferative assay, MDR line SW620C; format: cell-based, human; settings: for IC50: exposure time 72 h, n = 3, ABCG2-overexpressing MDR line; for activity factor IC50(1)/IC50(3a–4d), SW620C: vs corresponding amine (R)-1 or (S)-1, 72 h
Text: as §1, §2

SW620V = experiment: Neutral red uptake antiproliferative assay, MDR line SW620V; format: cell-based, human; settings: for IC50: exposure time 72 h, n = 3, ABCB1-overexpressing MDR line; for activity factor IC50(1)/IC50(3a–4d), SW620V: vs corresponding amine (R)-1 or (S)-1, 72 h
Text: as §1, §2

Row | IC50 (SW620Mito) [nM] | activity factor IC50(1)/IC50(3a–4d), SW620Mito (SW620Mito) | IC50 (Colo205) [nM] | activity factor IC50(1)/IC50(3a–4d), Colo205 (Colo205) | IC50 (MCF7) [nM] | activity factor IC50(1)/IC50(3a–4d), MCF7 (MCF7) | IC50 (HepG2) [nM] | activity factor IC50(1)/IC50(3a–4d), HepG2 (HepG2) | IC50 (SW620C) [nM] | activity factor IC50(1)/IC50(3a–4d), SW620C (SW620C) | IC50 (SW620V) [nM] | activity factor IC50(1)/IC50(3a–4d), SW620V (SW620V) | KSP residual activity (KSP) [%] | Structure (SMILES) | Cell cycle fraction G1, 24 h (SW620 cells) [%] | Cell cycle fraction G2/M, 24 h (SW620 cells) [%] | Cell cycle fraction S, 24 h (SW620 cells) [%] | Cell cycle fraction G1, 48 h (SW620 cells) [%] | Cell cycle fraction G2/M, 48 h (SW620 cells) [%] | Cell cycle fraction S, 48 h (SW620 cells) [%] | further results
1 | 4330 | (0.060) | 1260 | (0.085) | 858 | (0.269) | 1570 | (0.360) | 4380 | (0.165) | 4710 | (0.044) |  | CC(C)[C@@H](N=Cc1ccccn1)c1nc2cc(Cl)ccc2c(=O)n1Cc1ccccc1.Cc1ccc(C(C)C)cc1.F[P-](F)(F)(F)(F)F.[Cl-].[Ru+2] [Compound 3a, [(cym)Ru((R)-2)Cl]PF6] | 51.9 ± 1.0 | 32.5 ± 1.5 | 14.9 ± 0.6 | 44.8 ± 0.7 | 40.2 ± 1.1 | 14.3 ± 0.4 | KSP inhibitory activity (in words) (KSP; 100, 300 and 1000 nM): nonactive
2 | 748 | (0.349) | 448 | (0.239) | 73 | (3.16) | 188 | (3.01) | 1170 | (0.616) | 1030 | (0.200) | 71.8 | CC(C)[C@@H](N=Cc1ccccn1)c1nc2cc(Cl)ccc2c(=O)n1Cc1ccccc1.Cc1ccc(C(C)C)cc1.F[P-](F)(F)(F)(F)F.[Cl-].[Os+2] [Compound 3b, [(cym)Os((R)-2)Cl]PF6] | 51.4 ± 1.2 | 35.3 ± 1.4 | 12.5 ± 2.1 | 41.4 ± 0.7 | 45.0 ± 0.5 | 12.7 ± 1.1 | increased cytotoxicity vs corresponding amine 1, MCF7 (MCF7): 3 fold; increased cytotoxicity vs corresponding amine 1, HepG2 (HepG2): 3 fold
3 | 524 | (0.498) | 138 | (0.775) | 357 | (0.647) | 689 | (0.821) | 592 | (1.22) | 210 | (0.981) | 47.5 | CC(C)[C@@H](N=Cc1ccccn1)c1nc2cc(Cl)ccc2c(=O)n1Cc1ccccc1.Cc1c(C)c(C)[c-](C)c1C.F[P-](F)(F)(F)(F)F.[Cl-].[Rh+3] [Compound 3c, [(Cp*)Rh((R)-2)Cl]PF6] | 33.9 ± 2.5 | 40.9 ± 3.5 | 24.2 ± 1.4 | 23.1 ± 1.7 | 54.5 ± 1.8 | 20.8 ± 2.2 | 
4 | 268 | (0.974) | 524 | (0.204) | 653 | (0.354) | 454 | (1.25) | 335 | (2.15) | 267 | (0.771) | 64.0 | CC(C)[C@@H](N=Cc1ccccn1)c1nc2cc(Cl)ccc2c(=O)n1Cc1ccccc1.Cc1c(C)c(C)[c-](C)c1C.F[P-](F)(F)(F)(F)F.[Cl-].[Ir+3] [Compound 3d, [(Cp*)Ir((R)-2)Cl]PF6] | 30.8 ± 0.8 | 43.4 ± 1.5 | 25.4 ± 0.8 | 24.3 ± 1.2 | 55.9 ± 1.1 | 19.3 ± 0.4 | higher cytotoxicity than corresponding amine 1, SW620C (SW620C; rounded value): 2.2 fold
